Assays:
[1] = target: T1, TYRO3 (Homo sapiens, UniProt Q06418); assay: LanthaScreen Eu kinase binding assay, TYRO3; conditions: Tracer 236
T1 construct: purchased Life Technologies
T1 sequence (Q06418 41-890): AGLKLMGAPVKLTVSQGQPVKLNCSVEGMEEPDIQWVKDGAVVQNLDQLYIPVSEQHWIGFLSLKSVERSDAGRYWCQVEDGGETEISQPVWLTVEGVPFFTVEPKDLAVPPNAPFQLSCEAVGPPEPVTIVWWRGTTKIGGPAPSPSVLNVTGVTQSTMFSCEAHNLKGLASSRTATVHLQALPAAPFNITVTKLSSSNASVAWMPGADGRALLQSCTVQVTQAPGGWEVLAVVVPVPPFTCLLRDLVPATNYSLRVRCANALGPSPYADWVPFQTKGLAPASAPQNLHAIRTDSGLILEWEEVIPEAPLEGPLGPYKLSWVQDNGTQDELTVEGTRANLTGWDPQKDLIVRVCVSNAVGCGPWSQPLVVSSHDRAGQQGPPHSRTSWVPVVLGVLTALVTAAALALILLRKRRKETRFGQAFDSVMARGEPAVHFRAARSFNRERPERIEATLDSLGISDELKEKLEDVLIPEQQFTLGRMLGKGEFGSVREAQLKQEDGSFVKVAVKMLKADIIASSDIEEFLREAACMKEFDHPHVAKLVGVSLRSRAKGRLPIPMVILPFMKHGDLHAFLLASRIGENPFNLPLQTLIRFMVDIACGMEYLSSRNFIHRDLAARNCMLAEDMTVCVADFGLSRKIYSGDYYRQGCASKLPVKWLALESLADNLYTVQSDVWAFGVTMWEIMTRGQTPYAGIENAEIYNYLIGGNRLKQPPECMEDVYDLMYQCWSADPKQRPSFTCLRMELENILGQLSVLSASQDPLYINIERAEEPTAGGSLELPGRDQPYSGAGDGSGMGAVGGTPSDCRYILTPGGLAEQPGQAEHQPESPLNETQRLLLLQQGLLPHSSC

[2] = target: T2, Met (Homo sapiens, UniProt P08581); assay: LanthaScreen Eu kinase binding assay, Met; conditions: Tracer 236, read-out: cMet kinase binding activity (Kd)
T2 construct: purchased Life Technologies

[3] = test system: Axl phosphorylation in transiently transfected HEK293T cells; assay: Cellular Axl phosphorylation assay; format: cell-based; conditions: Homo sapiens, HEK-293T; HEK293T cells transfected with Axl, 1 hour compound treatment, Phospho-Axl vs Total-Axl
Excerpt: Cell AXL Inhibition Assay Principle
The assay is based on the measurement of the relative amounts of Total-Axl and Phosphorylated-Axl in whole cell lysates of transiently transfected HEK293T cells. This assay is based on application of the Mesoscale western blot and subsequent electro-chemiluminescence detection. Overexpression of Axl-RTK (Receptor tyrosine kinase) by transfection leads to an increase in Axl-trans-autophosphorylation events. Upon compound treatment, the correlation of the measured values of Phosphorylated-Axl and Total Axl indicate the potential of the tested compound to inhibit Axl-phosphorylation at the given compound concentration.
Cell AXL Inhibition Assay Protocol
HEK293T cells (2.5×10^4/well) were plated in a 96 well plate and cells were transfected with pcDNA_DEST_40 Axl or pcDNA_DEST_40 by Superfact reagent (Qiagen. Co. Ltd.). After overnight, the transfection reagent of each well was removed from cells and replaced by fresh prewarmed medium. On the following day, cells were treated with the respective test compound which was diluted by the same method, as in the Axl binding assay using DMSO, for 1 hour
After incubation with the test compounds, cells in the well of the plate were lysed using Tris lysis buffer. The lysate was transferred to two plates (total-Axl and phosphor-Axl) Mesoscale high bind plates and incubated for two hours at room temperature. Afterwards the lysates were removed from the plates and the plates were blocked using Blocking buffer. Subsequently Total-Axl antibody (H-124, Santa Cruz) was transferred to one Mesoscale high bind plate, and Phospho-Axl antibody (AF2228, R&D) to the other plate. After 1 h incubation, Sulpho-Tag antibody (goat anti-rabbit, Mesoscale) was added and again incubated for 1 hour. For the measurement, 2×MSD read buffer was added to each well and the plates were analyzed with a Mesoscale Sector Imager 2400. IC50 (half the maximal inhibitory concentration) was determined relative to between the vehicle (DMSO) control group and minimum control group as transfection of the control vector (pcDNA_DEST_40).
The results after this assay are shown in table 3 for selected compounds.

T2 sequence (P08581 25-1390): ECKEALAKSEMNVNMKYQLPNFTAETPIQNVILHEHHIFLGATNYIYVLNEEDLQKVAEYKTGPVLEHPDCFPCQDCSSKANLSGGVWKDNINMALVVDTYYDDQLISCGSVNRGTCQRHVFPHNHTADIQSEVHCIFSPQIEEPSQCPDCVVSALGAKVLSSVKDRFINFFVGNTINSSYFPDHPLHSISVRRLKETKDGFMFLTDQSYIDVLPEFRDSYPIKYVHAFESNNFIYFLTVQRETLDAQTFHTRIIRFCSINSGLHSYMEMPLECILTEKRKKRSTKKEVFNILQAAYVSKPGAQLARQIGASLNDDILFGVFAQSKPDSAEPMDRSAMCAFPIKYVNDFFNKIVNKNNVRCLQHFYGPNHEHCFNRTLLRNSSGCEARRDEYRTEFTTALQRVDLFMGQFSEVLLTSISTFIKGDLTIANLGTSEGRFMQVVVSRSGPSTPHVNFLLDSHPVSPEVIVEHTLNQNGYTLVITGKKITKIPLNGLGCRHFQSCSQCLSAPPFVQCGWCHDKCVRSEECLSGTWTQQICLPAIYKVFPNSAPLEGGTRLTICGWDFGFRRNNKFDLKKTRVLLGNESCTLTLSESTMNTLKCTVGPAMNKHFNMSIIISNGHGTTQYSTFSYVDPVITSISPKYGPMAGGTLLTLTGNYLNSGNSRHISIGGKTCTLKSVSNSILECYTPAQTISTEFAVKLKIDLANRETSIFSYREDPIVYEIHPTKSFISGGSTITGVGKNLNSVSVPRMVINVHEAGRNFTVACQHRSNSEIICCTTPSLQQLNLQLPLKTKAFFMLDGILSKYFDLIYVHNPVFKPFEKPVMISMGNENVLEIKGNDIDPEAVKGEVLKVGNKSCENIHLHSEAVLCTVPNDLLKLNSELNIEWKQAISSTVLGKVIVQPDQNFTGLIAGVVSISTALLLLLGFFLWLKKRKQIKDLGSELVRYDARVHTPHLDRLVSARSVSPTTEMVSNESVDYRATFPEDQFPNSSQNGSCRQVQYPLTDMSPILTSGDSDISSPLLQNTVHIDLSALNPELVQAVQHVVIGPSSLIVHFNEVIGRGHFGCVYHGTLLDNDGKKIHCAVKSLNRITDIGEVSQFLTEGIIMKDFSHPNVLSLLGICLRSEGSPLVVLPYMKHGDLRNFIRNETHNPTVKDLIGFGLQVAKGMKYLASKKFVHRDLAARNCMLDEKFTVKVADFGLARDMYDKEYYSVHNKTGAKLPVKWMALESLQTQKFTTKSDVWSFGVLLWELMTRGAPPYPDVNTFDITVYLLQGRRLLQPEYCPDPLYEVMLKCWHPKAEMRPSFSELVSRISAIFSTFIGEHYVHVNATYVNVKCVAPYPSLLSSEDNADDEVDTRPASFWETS

| SMILES | Kd [1] | Kd [2] | IC50 [3] |
| --- | --- | --- | --- |
| CCOc1cn(-c2ncc(Cl)cc2C#N)nc1C(=O)Nc1ccc(Oc2ccnc3cc(OC)c(OC)cc23)cn1 [Compound 133] | < 100 nM | < 100 nM | < 100 nM |
| CCOc1cn(-c2cnc(N)nc2)nc1C(=O)Nc1ccc(Oc2ccnc3cc(OC)c(OC)cc23)c(F)c1 [Compound 141] | < 100 nM | < 100 nM | < 100 nM |
| CCOc1cn(-c2cnc(OC)nc2)nc1C(=O)Nc1ccc(Oc2ccnc3cc(OC)c(OC)cc23)cn1 [Compound 148] | ≥ 1000 nM | < 100 nM | < 100 nM |
| CCOc1cn(-c2cncnc2C)nc1C(=O)Nc1ccc(Oc2ccnc3cc(OC)c(OC)cc23)cn1 [Compound 149] | < 100 nM | < 100 nM | < 100 nM |
| CCOc1cn(-c2cnccc2C)nc1C(=O)Nc1ccc(Oc2ccnc3cc(OC)c(OC)cc23)cc1F [Compound 151] | < 100 nM | < 100 nM | < 100 nM |
| CCOc1cn(-c2cnc(C)cn2)nc1C(=O)Nc1ccc(Oc2ccnc3cc(OC)c(OC)cc23)cn1 [Compound 160] | ≥ 1000 nM | < 100 nM | < 100 nM |
| CCOc1cn(-c2noc(C)n2)nc1C(=O)Nc1ccc(Oc2ccnc3cc(OC)c(OC)cc23)cn1 [Compound 161] | < 100 nM | < 100 nM | < 100 nM |
| CCOc1cn(-c2nccnc2C(F)(F)F)nc1C(=O)Nc1ccc(Oc2ccnc3cc(OC)c(OC)cc23)cn1 [Compound 162] | 100 to 1000 nM | < 100 nM | < 100 nM |
| CCOc1cn(-c2ncn(C)n2)nc1C(=O)Nc1ccc(Oc2ccnc3cc(OC)c(OC)cc23)cn1 [Compound 165] | 100 to 1000 nM | < 100 nM | < 100 nM |
| CCOc1cn(-c2cncnc2C2CC2)nc1C(=O)Nc1ccc(Oc2ccnc3cc(OC)c(OC)cc23)cn1 [Compound 167] | < 100 nM | < 100 nM | < 100 nM |
| CCOc1cn(-c2nc[nH]n2)nc1C(=O)Nc1ccc(Oc2ccnc3cc(OC)c(OC)cc23)cn1 [Compound 168] | < 100 nM | < 100 nM | < 100 nM |
| CCOc1cn(-c2cnc(Cl)cn2)nc1C(=O)Nc1ccc(Oc2ccnc3cc(OC)c(OC)cc23)cn1 [Compound 169] | ≥ 1000 nM | ≥ 1000 nM | < 100 nM |
| CCOc1cn(-c2cnccc2C(F)(F)F)nc1C(=O)Nc1ccc(Oc2ccnc3cc(OC)c(OC)cc23)cn1 [Compound 170] | < 100 nM | < 100 nM | < 100 nM |
| CCOc1cn(-c2nccnc2Cl)nc1C(=O)Nc1ccc(Oc2ccnc3cc(OC)c(OC)cc23)cn1 [Compound 177] | < 100 nM | < 100 nM | < 100 nM |
| CCOc1cn(-c2cnccc2CO)nc1C(=O)Nc1ccc(Oc2ccnc3cc(OC)c(OC)cc23)cn1 [Compound 179] | < 100 nM | < 100 nM | < 100 nM |
| CCOc1cn(-c2cnccc2CCO)nc1C(=O)Nc1ccc(Oc2ccnc3cc(OC)c(OC)cc23)cn1 [Compound 181] | < 100 nM | < 100 nM | < 100 nM |
| CCOc1cn(-c2cnccc2C(C)=O)nc1C(=O)Nc1ccc(Oc2ccnc3cc(OC)c(OC)cc23)cn1 [Compound 182] | < 100 nM | < 100 nM | < 100 nM |
| CCOc1cn(-c2cnccc2Cl)nc1C(=O)Nc1ccc(Oc2ccnc3cc(OC)c(OC)cc23)cn1 [Compound 183] | < 100 nM | < 100 nM | < 100 nM |
| CCOc1cn(-c2cnccc2C(C)(C)O)nc1C(=O)Nc1ccc(Oc2ccnc3cc(OC)c(OC)cc23)cn1 [Compound 184] | < 100 nM | < 100 nM | < 100 nM |

| SMILES | Kd [1] | Kd [2] | IC50 [3] |
| --- | --- | --- | --- |
| COc1cc2nccc(Oc3ccc(NC(=O)c4nn(-c5cccnc5)cc4OCC(F)(F)F)nc3)c2cc1OC [Compound 185] | < 100 nM | < 100 nM | < 100 nM |
| COc1cc2nccc(Oc3ccc(NC(=O)c4nn(-c5ccc(OC(F)(F)F)cc5Cl)cc4OCC(F)(F)F)nc3)c2cc1OC [Compound 186] | 100 to 1000 nM | 100 to 1000 nM | < 100 nM |
| CCOc1cn(-c2c(C)ccnc2C)nc1C(=O)Nc1ccc(Oc2ccnc3cc(OC)c(OC)cc23)c(F)c1 [Compound 188] | < 100 nM | < 100 nM | < 100 nM |
| CCOc1cn(-c2ccc(OC(F)(F)F)cc2Cl)nc1C(=O)Nc1ccc(Oc2ccnc3cc(OC)c(OC)cc23)c(F)c1 [Compound 189] | < 100 nM | < 100 nM | < 100 nM |
| CCOc1cn(-c2nccnc2Cl)nc1C(=O)Nc1ccc(Oc2ccnc3cc(OC)c(OC)cc23)cc1F [Compound 190] | < 100 nM | < 100 nM | < 100 nM |
| CCOc1cn(-c2c(C)ccnc2C)nc1C(=O)Nc1ccc(Oc2ccnc3cc(OC)c(OC)cc23)cc1F [Compound 191] | < 100 nM | < 100 nM | < 100 nM |
| CCOc1cn(-c2ccc(OC(F)(F)F)cc2Cl)nc1C(=O)Nc1ccc(Oc2ccnc3cc(OC)c(OC)cc23)cc1F [Compound 192] | 100 to 1000 nM | < 100 nM | < 100 nM |
| CCOc1cn(-c2cnccc2Cl)nc1C(=O)Nc1ccc(Oc2ccnc3cc(OC)c(OC)cc23)c(F)c1 [Compound 193] | < 100 nM | < 100 nM | < 100 nM |
| CCOc1cn(-c2cnccc2Cl)nc1C(=O)Nc1ccc(Oc2ccnc3cc(OC)c(OC)cc23)cc1F [Compound 194] | < 100 nM | < 100 nM | < 100 nM |
| CCOc1cn(-c2cnccc2C(C)(C)O)nc1C(=O)Nc1ccc(Oc2ccnc3cc(OC)c(OC)cc23)c(F)c1 [Compound 195] | < 100 nM | < 100 nM | < 100 nM |
| CCOc1cn(-c2cnccc2C(F)(F)F)nc1C(=O)Nc1ccc(Oc2ccnc3cc(OC)c(OC)cc23)cc1F [Compound 196] | < 100 nM | < 100 nM | < 100 nM |
| CCOc1cn(-c2cnccc2C(C)(C)O)nc1C(=O)Nc1ccc(Oc2ccnc3cc(OC)c(OC)cc23)cc1F [Compound 197] | < 100 nM | < 100 nM | < 100 nM |
| CCOc1cn(-c2cnccc2C(F)(F)F)nc1C(=O)Nc1ccc(Oc2ccnc3cc(OC)c(OC)cc23)c(F)c1 [Compound 198] | < 100 nM | < 100 nM | < 100 nM |
| CCOc1cn(-c2cccnc2)nc1C(=O)Nc1ccc(Oc2ccnc3cc(OC)c(OC(F)(F)F)cc23)cn1 [Compound 199] | ≥ 1000 nM | ≥ 1000 nM | < 100 nM |
| CCOc1cn(-c2nccnc2C(C)(C)O)nc1C(=O)Nc1ccc(Oc2ccnc3cc(OC)c(OC)cc23)cn1 [Compound 200] | < 100 nM | < 100 nM | < 100 nM |
| CCOc1cn(-c2ccc(OC(F)(F)F)cc2Cl)nc1C(=O)Nc1ccc(Oc2ccnc3cc(OC)c(OC(F)(F)F)cc23)cn1 [Compound 201] | ≥ 1000 nM | 100 to 1000 nM | 100 to 1000 nM |
| COc1cc2nccc(Oc3ccc(NC(=O)c4nn(-c5ccc(F)cc5C)cc4OCC(F)(F)F)nc3)c2cc1OC [Compound 203] | < 100 nM | < 100 nM | < 100 nM |
| CCOc1cn(-c2cnccc2C(C)(O)CO)nc1C(=O)Nc1ccc(Oc2ccnc3cc(OC)c(OC)cc23)cn1 (stereo not drawn) [Compound 205] | < 100 nM | < 100 nM | < 100 nM |
| CCOc1cn(-c2cccnc2)nc1C(=O)Nc1ccc(Oc2ccnc3cc(OC(C)CC)c(OC)cc23)cn1 (stereo not drawn) [Compound 206] | ≥ 1000 nM | ≥ 1000 nM | < 100 nM |

From patent publication US10934274B2, “Quinoline derivatives as TAM RTK inhibitors” (Qurient Co., Ltd., priority 2015, dated 2021)
